# Measured values published in paper PMC5943959, “Potent and Selective Carboxylic Acid Inhibitors of Tumor-Associated Carbonic Anhydrases IX and XII” (Molecules : A Journal of Synthetic Chemistry and Natural …, 2017).
# Like-named read-outs stand apart in the source and are kept apart here.
# Key:
# hCA I [1] = molecular target: T1, hCA I (Homo sapiens, UniProt P00915); experiment: stopped-flow CO2 hydrase assay, hCA I; assay type: biochemical
# T1 construct: made in house
# hCA VA [2] = molecular target: T2, hCA VA (Homo sapiens, UniProt P35218); experiment: stopped-flow CO2 hydrase assay, hCA VA; assay type: biochemical; details: recombinant enzyme; errors ± 5–10%, 3 assays; read-out: Ki hCA VA
# T2 construct: made in house
# hCA II [3] = molecular target: T3, hCA II (Homo sapiens, UniProt P00918); experiment: stopped-flow CO2 hydrase assay, hCA II; assay type: biochemical; details: recombinant enzyme; errors ± 5–10%, 3 assays; read-out: Ki hCA II
# T3 construct: made in house
# hCA VII [4] = molecular target: T4, hCA VII (Homo sapiens, UniProt P43166); experiment: stopped-flow CO2 hydrase assay, hCA VII; assay type: biochemical; details: for Ki: recombinant enzyme, errors ± 5–10%, 3 assays, read-out: Ki hCA VII
# T4 construct: made in house
# hCA XII [5] = molecular target: T5, hCA XII (Homo sapiens, UniProt O43570); experiment: stopped-flow CO2 hydrase assay, hCA XII; assay type: biochemical; details: for Selectivity Index hCA II/hCA XII: ratio of Ki values; for Ki: recombinant enzyme, errors ± 5–10%, 3 assays, read-out: Ki hCA XII
# T5 construct: made in house
# hCA IX [6] = molecular target: T6, hCA IX (Homo sapiens, UniProt Q16790); experiment: stopped-flow CO2 hydrase assay, hCA IX; assay type: biochemical; details: for Selectivity Index hCA II/hCA IX: ratio of Ki values; for Ki: recombinant enzyme, errors ± 5–10%, 3 assays
# T6 construct: made in house
# hCA IV [7] = molecular target: T7, hCA IV (Homo sapiens, UniProt P22748); experiment: stopped-flow CO2 hydrase assay, hCA IV; assay type: biochemical; details: recombinant enzyme; errors ± 5–10%, 3 assays; read-out: Ki hCA IV
# T7 construct: made in house
# [8] = test system: chronic myeloid leukemia cells; design: method as in PMID 26121309; details: cited from earlier work
# hCA IV [9] = molecular target: T7, hCA IV; design: method as in PMID 26121309; details: values measured previously; cited from earlier work
# hCA II [10] = molecular target: T3, hCA II; design: method as in PMID 26121309; details: values measured previously; cited from earlier work
# hCA VA [11] = molecular target: T2, hCA VA; design: method as in PMID 26121309; details: values measured previously; cited from earlier work
# hCA XII [12] = molecular target: T5, hCA XII; design: method as in PMID 26121309; details: values measured previously; cited from earlier work
# hCA VII [13] = molecular target: T4, hCA VII; design: method as in PMID 26121309; details: values measured previously; cited from earlier work
# hCA IX [14] = molecular target: T6, hCA IX; design: method as in PMID 26121309; details: values measured previously; cited from earlier work
# hCA I [15] = molecular target: T1, hCA I; design: method as in PMID 26121309; details: values measured previously; cited from earlier work
# [16] = recombinant enzyme, errors ± 5–10%, 3 assays, read-out: Ki hCA I
# T1 sequence (P00915 whole entry): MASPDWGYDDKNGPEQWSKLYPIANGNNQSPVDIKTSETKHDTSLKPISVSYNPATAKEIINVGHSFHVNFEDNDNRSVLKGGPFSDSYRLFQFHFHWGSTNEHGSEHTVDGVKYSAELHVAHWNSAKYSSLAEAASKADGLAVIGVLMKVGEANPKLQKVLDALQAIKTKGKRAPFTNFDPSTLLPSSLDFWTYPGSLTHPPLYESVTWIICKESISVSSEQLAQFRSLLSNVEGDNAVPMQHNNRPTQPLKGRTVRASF
# T4 sequence (P43166 whole entry): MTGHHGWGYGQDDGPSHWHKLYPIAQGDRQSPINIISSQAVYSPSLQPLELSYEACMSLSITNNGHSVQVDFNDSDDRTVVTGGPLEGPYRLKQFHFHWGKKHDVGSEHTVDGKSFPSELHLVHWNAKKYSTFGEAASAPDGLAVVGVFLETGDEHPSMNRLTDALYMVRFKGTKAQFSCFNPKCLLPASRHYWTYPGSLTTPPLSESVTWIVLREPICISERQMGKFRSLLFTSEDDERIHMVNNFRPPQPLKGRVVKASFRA
# T5 sequence (O43570 25-354): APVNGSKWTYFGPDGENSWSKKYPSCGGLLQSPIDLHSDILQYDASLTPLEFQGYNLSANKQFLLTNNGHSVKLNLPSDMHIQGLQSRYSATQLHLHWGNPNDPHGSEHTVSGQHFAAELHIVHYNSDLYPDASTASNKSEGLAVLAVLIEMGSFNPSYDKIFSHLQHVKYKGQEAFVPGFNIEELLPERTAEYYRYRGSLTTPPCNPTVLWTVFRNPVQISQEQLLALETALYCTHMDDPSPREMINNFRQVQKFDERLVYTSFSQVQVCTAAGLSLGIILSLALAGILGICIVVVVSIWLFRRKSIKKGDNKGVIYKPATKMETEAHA
# T2 sequence (P35218 39-305): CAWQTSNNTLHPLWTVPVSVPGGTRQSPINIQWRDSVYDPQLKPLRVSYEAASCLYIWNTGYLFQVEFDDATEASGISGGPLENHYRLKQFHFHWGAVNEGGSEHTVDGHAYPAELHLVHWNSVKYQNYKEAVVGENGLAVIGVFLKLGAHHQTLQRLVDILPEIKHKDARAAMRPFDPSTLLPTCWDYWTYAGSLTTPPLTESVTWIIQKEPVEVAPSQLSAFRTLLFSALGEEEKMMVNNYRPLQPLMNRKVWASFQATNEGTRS
# T7 sequence (P22748 19-312): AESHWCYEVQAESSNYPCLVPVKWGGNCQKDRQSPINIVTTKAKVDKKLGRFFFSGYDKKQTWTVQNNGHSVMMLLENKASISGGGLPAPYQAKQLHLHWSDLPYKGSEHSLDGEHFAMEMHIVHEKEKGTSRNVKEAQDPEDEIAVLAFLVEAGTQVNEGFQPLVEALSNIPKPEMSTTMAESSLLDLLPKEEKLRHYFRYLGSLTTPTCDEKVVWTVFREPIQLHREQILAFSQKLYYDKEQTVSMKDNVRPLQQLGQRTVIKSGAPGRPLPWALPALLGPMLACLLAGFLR
SMILES,Ki (hCA I [1]),Ki (hCA VA [2]),Ki (hCA II [3]),Ki (hCA VII [4]),Selectivity Index hCA II/hCA XII (hCA XII [5]),Ki (hCA XII [5]),Selectivity Index hCA II/hCA IX (hCA IX [6]),Ki (hCA IX [6]),Ki (hCA IV [7]),Ki (hCA I [1]; [16]),hCA VII inhibition (in words) (hCA VII [4]),antiproliferative effects [8],Ki (hCA IV [9]),Ki (hCA II [10]),Ki (hCA VA [11]),Ki (hCA XII [12]),Ki (hCA VII [13]),Ki (hCA IX [14]),Ki (hCA I [15])
Cc1ccc(S(=O)(=O)c2ccc(C(=O)O)cc2[N+](=O)[O-])cc1 [Compound 11],> 50000 nM,356 nM,> 50000 nM,> 50000 nM,>64.3,778 nM,>857.6,58.3 nM,> 50000 nM,–,–,–,–,–,–,–,–,–,–
CC(=O)Nc1cccc(Nc2c([N+](=O)[O-])cc(C(=O)O)cc2[N+](=O)[O-])c1 [Compound 12],> 50000 nM,144 nM,> 50000 nM,> 50000 nM,–,91.9 nM,–,82 nM,> 50000 nM,–,–,–,–,–,–,–,–,–,–
O=C(O)c1ccc(NCc2cccnc2)c([N+](=O)[O-])c1 [Compound 13],–,117 nM,> 50000 nM,> 50000 nM,>79.0,633 nM,>471.7,106 nM,> 50000 nM,> 50000 nM,inactive,–,–,–,–,–,–,–,–
O=C(CSc1nnc(-c2ccncc2)s1)Nc1cc(C(=O)O)cc([N+](=O)[O-])c1 [Compound 14],> 50000 nM,449 nM,> 50000 nM,> 50000 nM,>103.7,482 nM,>2174.0,23 nM,> 50000 nM,–,–,–,–,–,–,–,–,–,–
CC(C)(C)OC(=O)N1CCC(Nc2ccc(C(=O)O)cc2[N+](=O)[O-])CC1 [Compound 15],> 50000 nM,110 nM,> 50000 nM,> 50000 nM,>69.1,724 nM,>2024.3,24.7 nM,9200 nM,–,–,–,–,–,–,–,–,–,–
CC1=NN(c2ccc(C)cc2)C(=O)/C1=C/Nc1ccc(C(=O)O)cc1[N+](=O)[O-] [Compound 16],> 50000 nM,154 nM,> 50000 nM,1730 nM,>142.0,352 nM,>1661.1,30.1 nM,6030 nM,–,–,–,–,–,–,–,–,–,–
O=C(O)c1ccc(Sc2nnnn2-c2ccccc2)c([N+](=O)[O-])c1 [Compound 17],–,739 nM,> 50000 nM,> 50000 nM,>113.4,441 nM,>2136.8,23.4 nM,3560 nM,> 50000 nM,–,–,–,–,–,–,–,–,–
O=C(Cc1ccccc1)Nc1ccc(C(=O)O)cc1 [Compound 18],–,262 nM,7630 nM,> 50000 nM,12.1,629 nM,104.8,72.8 nM,> 50000 nM,2730 nM,–,–,–,–,–,–,–,–,–
N#Cc1ccc(NCCc2ccccc2)c([N+](=O)[O-])c1 [Compound 19],> 50000 nM,92.5 nM,> 50000 nM,> 50000 nM,–,648 nM,>632.1,79.1 nM,> 50000 nM,–,inactive,–,–,–,–,–,–,–,–
O=C(O)c1cc([N+](=O)[O-])c(NCCc2ccccc2)c([N+](=O)[O-])c1 [GV2-20],–,–,–,–,7.01,–,1.59,–,–,–,–,antiproliferative effects,7660 nM,67.3 nM,895 nM,9.6 nM,8.7 nM,42.3 nM,352 nM
